Measured values from patent publication EP0604355B1, “Akyl Substituted heterocyclic compounds” (N[…]/S, priority 1992, dated 1994).
Where a name gives a salt, the structure may show the parent alone.

What was measured:
[1] = test system: haloperidol-induced catalepsy; experiment: animal or person; conditions: Rattus norvegicus, read-out: Minimum effective dose (peroral administration)
Excerpt: The principle behind the haloperidol catalepsy test relates to the fact that the drug haloperidol (Serenase®) induces a receptor blockade of post synaptic dopamine receptors within the dopamine innervated corpus striatum of the rat brain. Following the blockade of active dopamine neurotransmission of the striatum a state of rigid immobility is induced, during which the rat can be placed in various totally abnormal immobile postures involving the forelegs and the whole body.
The day before testing, the rats weighing 200-250 g are housed 2 and 2 together in standard macrolon cages.
The testing for the immobile catalepsy syndrome includes 4 tests performed in the following consecutive order: • 1) a vertical wire netting (40x40 cm high).The meshes (openings) of the nettings are approximately 1x2cm. • 2) a horizontal bar 9 cm above the floor • 3) a 9 cm high block (bar) • 4) a 3 cm high block (cork)
The rats were scored for the immobile cataleptic syndrome every 15 min in all 4 tests starting 15 min after the haloperidol injection. The intensity of catalepsy was tested during 10 sec in all tests and evaluated according to a criteria of 10 sec of total immobility for a score of 2.
The rat was placed in the middle of the vertical wire netting, then on the horizontal bar in an extended position with support by both the forelegs on the bar. […]

[2] = biological target: reuptake of dopamine in synaptosomes of rat forebrain (Rattus norvegicus, UniProt P23977); experiment: biochemical
Sequence of reuptake of dopamine in synaptosomes of rat forebrain (P23977 whole entry): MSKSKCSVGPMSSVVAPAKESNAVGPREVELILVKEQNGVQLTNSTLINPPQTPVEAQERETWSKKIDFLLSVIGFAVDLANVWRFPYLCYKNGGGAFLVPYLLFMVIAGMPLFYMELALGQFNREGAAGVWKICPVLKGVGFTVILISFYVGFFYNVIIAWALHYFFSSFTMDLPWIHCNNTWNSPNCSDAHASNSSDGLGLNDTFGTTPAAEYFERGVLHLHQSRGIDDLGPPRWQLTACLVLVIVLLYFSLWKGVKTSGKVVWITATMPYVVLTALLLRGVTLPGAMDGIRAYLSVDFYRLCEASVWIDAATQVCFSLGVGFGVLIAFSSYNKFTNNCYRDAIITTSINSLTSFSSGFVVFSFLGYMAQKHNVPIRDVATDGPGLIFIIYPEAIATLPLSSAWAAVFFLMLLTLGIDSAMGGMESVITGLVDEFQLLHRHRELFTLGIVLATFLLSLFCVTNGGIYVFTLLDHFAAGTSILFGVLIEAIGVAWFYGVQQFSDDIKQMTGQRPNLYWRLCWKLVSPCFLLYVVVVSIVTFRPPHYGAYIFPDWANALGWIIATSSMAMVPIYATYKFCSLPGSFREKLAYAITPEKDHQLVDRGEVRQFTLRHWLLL
Description: Fresh whole forebrain (at 0-4°C) from male Wistar rats (150-200 g) is homogenized in a glass homogenizer with a Teflon pestle in 20 x volumes 0.32M sucrose. The homogenate is centrifuged at 1000 x g (∼2900 rpm) for 10 min. The pellet is discarded and the supernatant is used for uptake assays.
The samples are thoroughly mixed and incubated 10 min at 37°C followed by 2 min at 0°C. After incubation the samples are poured directly onto Whatman GF/C glass fibre filters under suction and immediately washed with 2 x 5 ml ice-cold 0.9% saline (NaCl) buffer. To the filter is added 3 ml of scintillation fluid, and the amount of radioactivity on the filters is determined by conventional liquid scintillation counting.

[3] = test system: dopamine releasing properties; experiment: dopamine releasing properties (no method described); conditions: in contrast to Win 35,428 and cocaine

| Structure (SMILES) | IC50 [2] [nM] | further results |
| --- | --- | --- |
| Cc1noc([C@@H]2[C@@H](c3ccc(Cl)cc3)C[C@@H]3CC[C@H]2N3C)n1.Cl [(1R,2R,3S)-2-(3-Methyl-1,2,4-oxadiazol-5-yl)-3-(4-chlorophenyl)-tropane, hydrochloride] | – | minimal effective dose [1]: > 1 mg/kg |
| CN1[C@H]2CC[C@@H]1[C@H](c1nc(-c3ccccc3)no1)[C@@H](c1ccc(Cl)cc1)C2 [(1R,2R,3S)-2-(3-Phenyl1,2,4-oxadiazol-5-yl)-3-(4-chlorophenyl)-tropane, hydrochloride] | 330 | – |
| CN1[C@H]2CC[C@@H]1[C@H](c1nc(-c3ccccc3)no1)[C@@H](c1ccc3ccccc3c1)C2 [(1R,2R,3S)-2-(3-Phenyl-1,2,4-oxadiazol-5-yl)-3-(2-naphthyl)tropane, hydrochloride] | 540 | – |
| Cc1ccc([C@H]2C[C@@H]3CC[C@H]([C@@H]2c2nc(-c4ccccc4)no2)N3C)cc1 [(1R,2R,3S)-2-(3-Phenyl-1,2,4-oxadiazol-5-yl)-3-(4-methylphenyl)-tropane, hydrochloride] | 960 | – |
| COC(=O)[C@@H]1[C@@H](c2ccc(F)cc2)C[C@@H]2CC[C@H]1N2C [trans isomer of Win 35,428, (1R,2R,3S)-2-carbomethoxy-3-(4-fluorophenyl)tropane] | – | dopamine releasing properties [3]: essentially free of dopamine releasing properties |
